Laboratory results taken from US5391569A, “New chromene compounds having a triene side chain” (Adir et Compagnie, priority 1992, dated 1995).
Read-outs that look alike come from different tables or passages of the source.

Tests used:
endogenous membrane PLA2 = assay: Inhibition of liberation of arachidonic acid from isolated rat polymorphonuclears stimulated by ionophore; type: cell-based; details: Test on rat PMNs; ionophore stimulation
Procedure: In a cell model involving endogenous membrane PLA2, the compounds of the invention also exerted an inhibiting effect on the liberation of arachidonic acid by their action on isolated rat polymorphonuclears (PLN), the membrane phospholipids of which had been labelled with tritiated arachidonic acid. The degree of activity of the compounds of the invention is assessed by measuring the radioactivity liberated after stimulation by ionophore […] according to the technique described by Sakson, Raz, Denny, Wyche and Needleman (Prostaglandins, 14, (1977), 853, sqq.).

[1] = target: porcine pancreatic phospholipase A2 (PLA2) (Sus scrofa, UniProt P00592); assay: Inhibition of liberation of tritiated oleic acid from Escherichia coli membranes by porcine pancreatic phospholipase A2; type: biochemical; details: Test on Escherichia coli membranes
Sequence of porcine pancreatic phospholipase A2 (PLA2) (P00592 23-146): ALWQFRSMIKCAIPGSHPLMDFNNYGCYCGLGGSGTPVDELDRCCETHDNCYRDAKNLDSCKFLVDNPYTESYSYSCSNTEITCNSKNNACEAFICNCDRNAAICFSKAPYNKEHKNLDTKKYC
Excerpt: The compounds of the present invention have an inhibiting activity on the liberation of tritiated oleic acid previously incorporated into Escherichia coli membranes under the effect of porcine pancreatic phospholipase A2 (PLA2) according to the technique described by Frason, Patriarca and Elsbach (J. Lipid. Res., 15, (1974), 380-388).

mouse calvaria [2] = assay: Anti-bone resorption-1: inhibition of hyper-resorption in mouse calvaria (in vitro); type: cell-based; details: for inhibition at 10 µM / inhibition at 50 µM: hyper-resorption induced by 5×10^-8 M retinoic acid; for inhibition at 7.5 µM: 7,5 μM
mouse calvaria [3] = assay: Formation of osteoid tissue: incorporation of tritiated proline into bone tissue of mouse calvaria; type: cell-based; details: read-out: Stimulation of formation
Excerpt: An effect promoting the formation of osteoid tissue (incorporation of tritiated proline from the medium into the bone tissue of mouse calvaria) has also been observed with some compounds: […]

[4] = tested on: mice in which a state of hyper-resorption had been induced by a calcium-deficient diet; assay: Anti-bone resorption-2: in vivo urinary [3H] tetracycline excretion in mice with hyper-resorption induced by calcium-deficient diet; details: calcium-deficient diet (0.4%)
Procedure: In vivo study according to the measurement method described by Konig, Muhlbauer and Fleisch ("Tumor necrosis factor and interleukine-1 stimulate bone resorption in vivo as measured by urinary [^3 H] tetracycline excretion from prelabeled mice", J. Bone Min. Res., 3, (1988), 621-627). A study was carried out on mice in which a state of hyper-resorption had been induced by a calcium-deficient diet (0.4%).

| Structure (SMILES) | IC50 (endogenous membrane PLA2) [µM] | IC50 [1] [µM] | other results |
| --- | --- | --- | --- |
| CC(C)(C)c1cc2c(c(C(C)(C)C)c1)OCC(/C=C/C=C/C=C/C(=O)O)=C2 [Example 13, (2E,4E,6E)-7-(6,8-Ditert.-butyl-2H-chromen-3-yl)hepta-2,4,6-trienoic acid] | 5 | 3 | – |
| CCOC(=O)/C=C(C)/C=C/C=C(\C)C1=Cc2cc(C(C)(C)C)ccc2OC1 [Example 33, Ethyl (2E,4E,6E)-7-(6-tert.-butyl-2H-chromen-3-yl)-3-methylocta-2,4,6-trienoate] | – | – | inhibition at 10 µM (mouse calvaria [2]): 3% |
| CC(/C=C/C=C(\C)C1=Cc2cc(-c3ccccc3)ccc2OC1)=C\C(=O)O [Example 26, (2E,4E,6E)-3-Methyl-7-(6-phenyl-2H-chromen-3-yl)octa-2,4,6-trienoic acid] | – | 5 | inhibition at 10 µM (mouse calvaria [2]): 11%; inhibition at 50 µM (mouse calvaria [2]): 29%; activation at 10 µM (mouse calvaria [3]): 7% |
| CCOC(=O)/C=C(C)/C=C/C=C(C)/C=C/c1c(C)cc(OC)c(C)c1C [Etretinate, reference compound] | – | – | Effect on hyper-resorption / urinary excretion of tritiated tetracycline (in words) [4]: tends to increase the urinary excretion of tritiated tetracycline; % variation in urinary [3H] tetracycline excretion ([4]; oral dose 50 mg/kg): +11%; % variation in urinary [3H] tetracycline excretion ([4]; oral dose 100 mg/kg): +3%; inhibition at 50 µM (mouse calvaria [2]): 11% |
| CCOC(=O)/C=C(C)/C=C/C=C(\C)C1=Cc2cc(C)cc(C)c2OC1 [Example 35, Ethyl (2E,4E,6E)-7-(6,8-dimethyl-2H-chromen-3-yl)-3-methylocta-2,4,6-trienoate] | – | 5 | inhibition at 10 µM (mouse calvaria [2]): 15%; inhibition at 50 µM (mouse calvaria [2]): 32%; inhibition at 7.5 µM (mouse calvaria [2]; parathormone (PTH) 500 ng/ml, read-out: Hyper-resorption with PTH): 12%; inhibition at 7.5 µM (mouse calvaria [2]; retinoic acid, read-out: Hyper-resorption with retinoic acid): 9%; activation at 10 µM (mouse calvaria [3]): 11% |
| Cc1cc2c(c(C(C)(C)C)c1)OCC(/C=C/C=C/C=C/C(=O)O)=C2 [Example 11, (2E,4E,6E)-7-(6-Methyl-8-tert.-butyl-2H-chromen-3-yl)hepta-2,4,6-trienoic acid] | 5 | 6 | – |
| Cc1cc(C)c2c(c1)C=C(/C=C/C=C/C=C/C(=O)O)C(C)(C)O2 [Example 18, (2E,4E,6E)-7-(2,2,6,8-Tetramethyl-2H-chromen-3-yl)hepta-2,4,6-trienoic acid] | 30 | 30 | – |
| CCOC(=O)/C=C(C)/C=C/C=C(\C)C1=Cc2cc(C(C)(C)C)cc(C)c2OC1 [Example 36, Ethyl (2E,4E,6E)-7-(6-tert.-butyl-8-methyl-2H-chromen-3-yl)-3-methylocta-2,4,6-trienoate] | – | 5 | – |
| Cc1cc(Cl)cc2c1OCC(/C=C/C=C/C=C/C(=O)O)=C2 [Example 15, (2E,4E,6E)-7-(6-Chloro-8-methyl-2H-chromen-3-yl)hepta-2,4,6-trienoic acid] | 50 | 10 | – |
| O=C(O)/C=C/C=C/C=C/C1=Cc2cc(Cl)cc(Cl)c2OC1 [Example 20, (2E,4E,6E)-7-(6,8-Dichloro-2H-chromen-3-yl) hepta-2,4,6-trienoic acid] | 30 | 8 | – |
| CCOC(=O)/C=C(C)/C=C/C=C(\C)C1=Cc2cc(-c3ccccc3)ccc2OC1 [Example 25, Ethyl (2E,4E,6E)-3-methyl-7-(6-phenyl-2-H-chromen-3-yl)octa-2,4,6-trienoate] | – | 5 | inhibition at 50 µM (mouse calvaria [2]): 15% |
| Cc1cc(C)c2c(c1)C=C(/C=C/C=C/C=C\C(=O)O)CO2 [Example 2, (2Z,4E,6E)-7-(6,8-Dimethyl-2H-chromen-3-yl) hepta-2,4,6-trienoicacid] | – | – | % variation in urinary [3H] tetracycline excretion ([4]; oral dose 50 mg/kg): -10%; % variation in urinary [3H] tetracycline excretion ([4]; oral dose 100 mg/kg): -10%; % variation in urinary [3H] tetracycline excretion ([4]; oral dose 200 mg/kg): -12% |

Further lines, with some results ahead:

| IC50 (endogenous membrane PLA2) [µM] | IC50 [1] [µM] | Structure (SMILES) | other results |
| --- | --- | --- | --- |
| 50 | 30 | Cc1cc(Cl)cc2c1OC(C)(C)C(/C=C/C=C/C=C/C(=O)O)=C2 [Example 19, (2E,4E,6E)-7-(2,2,8-Trimethyl-6-chloro-2H-chromen-3-yl)hepta-2,4,6-trienoic acid] | – |
| 50 | 20 | Cc1cc(Cl)c2c(c1)C=C(/C=C/C=C/C=C/C(=O)O)CO2 [Example 14, (2E,4E,6E)-7-(6-Methyl-8-chloro-2H-chromen-3-yl)hepta-2,4,6-trienoic acid] | – |
| 10 | 9 | CC(C)(C)c1ccc2c(c1)C=C(/C=C/C=C/C=C/C(=O)O)CO2 [Example 6, (2E,4E,6E)-7-(6-Tert.-butyl-2H-chromen-3-yl) hepta-2,4,6-trienoic acid] | – |
| – | 7.5 | CCOC(=O)\C=C(C)/C=C/C=C(\C)C1=Cc2cc(-c3ccccc3)ccc2OC1 [Example 27] | inhibition at 10 µM (mouse calvaria [2]): 11% |
| – | 4 | CC(/C=C/C=C(\C)C1=Cc2cc(C(C)(C)C)ccc2OC1)=C\C(=O)O [Example 41, (2E,4E,6E)-7-(6-Tert.-butyl-2H-chromen-3-yl)-3-methylocta-2,4,6-trienoic acid] | – |
| – | 7.5 | CCOC(=O)/C=C(C)/C=C/C=C(\C)C1=Cc2cc(C)ccc2OC1 [Example 32, Ethyl (2E,4E,6E)-7-(6-methyl-2H-chromen-3-yl)-3-methylocta-2,4,6-trienoate] | inhibition at 10 µM (mouse calvaria [2]): 14%; inhibition at 50 µM (mouse calvaria [2]): 12% |
| 30 | 7.5 | CC(C)c1ccc2c(c1)C=C(/C=C/C=C/C=C/C(=O)O)CO2 [Example 5, (2E,4E,6E)-7-(6-Isopropyl-2H-chromen-3-yl) hepta-2,4,6-trienoic acid] | – |
